We go through 3 substances from US20250255850A1, “PHARMACEUTICAL COMPOSITIONS FOR TREATING NEUROLOGICAL CONDITIONS” (YISSUM RESEARCH DEVELOPMENT COMPANY OF THE HEBREW …, priority 2021, published 2025).

Series [1] deals with C57BL/6 wild-type mice. The series is described as follows: Novel object recognition test (NOR), SNAP-treated wild-type mice. It counts as in vivo, mouse. Here is the method: (§1) Behavioral testing started after 2 hours of treatment.
Novel object recognition (see, FIG. 4A): The novel object test for object recognition and memory takes place in a white open field arena (45×45 cm). The test involves a set of two unique novel objects, each about the size of a mouse, constructed from two different materials and non-uniform in shape. The test consisted of one 10-minute habituation session, a 5-minute familiarization session and a 5-minute recognition test, each video tracked (Noldus Ethovision). During the habituation, animals were allowed to freely explore an empty open field. At the end of the session, they were shifted from the open field to a place in a temporary clean holding cage for about 2 minutes. Two identical objects were placed on the median line at 10 cm from each wall and the animal was returned to the open field and allowed to explore the objects for 5 minutes before being returned to its home cage. Next day, one familiar object and one novel object were placed in the open field to the location where the identical objects were placed during the familiarization session and the mouse was allowed to explore them for a 5-minute recognition test. […] Familiarization and recognition sessions were scored for total time spent investigating each object, the number of object interactions and the latency of the first object interaction. […]

Series [2] has as its system C57BL/6 wild-type mice. As to the kind of experiment: Elevated plus maze test, SNAP-treated wild-type mice. Format: in vivo, mouse. The procedure: as §1
Elevated plus maze test (see, FIG. 4C): The elevated plus-maze consisted of four arms (30×5 cm), two open, and the other two closed. The platform was made of white plexiglass. The apparatus was elevated 45 cm above the floor. The test, described in, was initiated by placing the mouse on the central platform of the maze, facing one of the open arms, and letting it move freely. Each session lasted 5 min. The time spent in the close and open arms was recorded.
An elevated plus maze test (see, FIG. 4C) was performed to evaluate the anxiety-like behaviors among the mice, typically the anxiety quantified as the time spent in the closed arms.

The subject of series [3] is C57BL/6 wild-type mice. As to the kind of experiment: Three-chambered sociability test, SNAP-treated wild-type mice. Format: in vivo, mouse. Here is the method:
as §1
Three-chambered sociability test (see, FIG. 4B): Sociability and preference for social novelty and social recognition were tested in a three-chambered apparatus. The subjected mouse was first placed in the central, neutral chamber and allowed to explore for 10 minutes with all the doors closed. Next, doors were opened and the mouse was allowed to freely explore the other two empty chambers (1 and 2) for an additional 10 minutes. Lack of side preference was confirmed during this habituation.
Two cylindrical wire cages were placed, one in chamber 1 and the other in chamber 2. For the sociability test, the test animal was introduced to the middle chamber and allowed to adjust for 5 minutes. Then, an unfamiliar mouse was introduced into a wire cage in one of the side-chambers, and the other side-chamber remained empty. The time spent by the test mouse exploring the wire cage with an unfamiliar mouse inside was recorded for 5 minutes.
Next, to examine social memory, novel mice is introduced to the empty cage and the tested mice is examined whether they are interested in the novel mice compared to the familiar.
S-nitroso-N-acetylpenicillamines (SNAP), is an NO donor that increases the NO availability, subsequently leading to nitrosative stress and aberrant SNO signaling. […] To examine the potential effect of SNAP administration on mice behaviors, a novel object recognition test (NOR) and sociability test were performed (See, FIGS. 4A-B), and the obtained data are presented in FIGS. 2A-B, respectively.
A three-chamber sociability test was conducted as in Example 2 (see also FIG. 4B), to evaluate the interest of the mice to engage in social interaction with a stranger mouse. Generally, the mice prefer to spend more time with another mouse (sociability), and the mice have the tendency to investigate a novel intruder more than a familiar one (social novelty). […]

A short description of series [4]: Solubility in DMSO.
Series [5] has as its system C57BL/6 wild-type mice. As to the kind of experiment: Marble burying test, SNAP-treated wild-type mice. The settings on record: SNAP IP 20 mg/kg/day for 10 days; vs WT. It counts as in vivo, mouse. The procedure:
as §1
Marble Burying test (see, FIG. 4D): The marble-burying assay is a tool for assessing either anxiety-like and/or repetitive-like behaviors in mice. Subjects were tested in a regular clean cage (28 cm long×18 cm wide×12 cm high) with 3 cm of fresh bedding. The subject was first placed in the empty cage for a 5-min habituation. It was then temporary placed in an empty clean cage while 20 dark blue glass marbles (15 mm in diameter) were positioned over the bedding equidistant in a 4×5 arrangement to cover the whole cage surface. The subject was then returned in the test cage and allowed to explore and bury the marbles during a 15-min session that was videotaped. At the end of the session the subject was removed and the number of marbles buried (50% marble covered by bedding material) was recorded.
A marble burying test (as shown in FIG. 4D) was utilized as an indication for repetitive behaviors and restricted interests.

The test system of series [6] is SHSY-5Y cells. As to the kind of experiment: Immunofluorescence of 3-nitrotyrosine and synaptophysin in SHANK3-silenced SHSY-5Y cells. Format: cell-based, human. Here is the method:
A cell culture model for ASD was developed by silencing SHANK3 with an siRNA (5-3 RNA)-CGAUGAUAAGCAGUUUGCAAAGCUU (SEQ ID NO: 3) in the neuronal cell line SHSY-5Y cells, followed by silencing with of nNOS using the following RNA (5-3) CCUUGUCCAACAUGCUCCUAGAGAU (SEQ ID NO: 4).
SHSY-5Y Cells (with or without treatment) were fixed post treatment in 4% paraformaldehyde, incubated with the Primary rabbit MAP2+ primary mouse monoclonal 3-nitrotyrosine (FIGS. 9A-B) and with Primary rabbit monoclonal synaptophysin+primary mouse Map2 (FIGS. 9C-D). Thereafter, cells were incubated with anti-mouse secondary Alexa fluor488 (green)/594 (red), and anti-rabbit secondary Alexa fluor 488 (green)/594 (red), conjugated secondary antibodies. After washing, cells were mounted with DAPI (Blue). The images were acquired using a confocal microscope. Each group contained nine independent sets of experiments (initial cell seed number—about 10^6).
To support the effect of nucleic acid silencing on a SHANK3 silenced background, the present inventors applied siRNA to nNOS on […] SHSY-5Y Cells.

Where [7] appears, read: SNAP IP 20 mg/kg/day for 7 days, wild-type mice vs control group.
[8] abbreviates: SNAP IP 20 mg/kg/day for 10 days, C57BL/6 WT mice.

As for S-nitroso-N-acetylpenicillamines [SNAP], the “preference for the novel object (NOR test)” value in series [1] (setting [7]) and in series [1] (setting [8]) was “failed to display a preference for the novel object” throughout. For the same substance, in series [2] (SNAP IP 20 mg/kg/day for 10 days, vs WT group), the “time in the closed arms (elevated plus maze)” value was “spent significantly more time in the closed arms compared to WT group”. In series [2] (SNAP i.p. 20 mg/kg daily for 10 days, vs WT), the “time spent in the open arms (elevated plus maze)” value is given as “significantly decreased time in the open arms”. For the same substance, the “preference to engage in social interaction (sociability test)” value in series [3] (setting [7]) is “did not exhibit any preference to engage in social interaction”. In addition, in series [3] (setting [8]), the “preference for novel mouse (S2) vs familiar (S1) (second session, social novelty)” value was “did not exhibit any significant preference to engage in social interaction with the mice”. Moreover, in series [3] (setting [8]), the “time interacting with stranger mouse vs empty cage (first session, sociability)” value is given as “spent more time interacting with the stranger mouse than with the empty cage”. Moreover, the “solubility in DMSO” value in series [4] came to 20 mg/mL. The “number of marbles buried” value in series [5] is given as “buried significantly less marbles”.
Consider “SHANK3 si-RNA: siRNA CGAUGAUAAGCAGUUUGCAAAGCUU (SEQ ID NO: 3) silencing SHANK3 (CGAUGAUAAGCAGUUUGCAAAGCUU; listed as RNA, chemistry not given here)”, for which the “synaptophysin expression (immunofluorescence)” value in series [6] (SHSY-5Y cells treated with SHANK3 si-RNA alone) was “downregulated”.
In the case of “siRNA to nNOS: RNA (5-3) CCUUGUCCAACAUGCUCCUAGAGAU (SEQ ID NO: 4) silencing nNOS (CCUUGUCCAACAUGCUCCUAGAGAU; listed as RNA, chemistry not given here)”, in series [6] (nNOS knockdown in the SHANK3 si-RNA group (double knockdown)), the “synaptophysin protein expression (immunofluorescence)” value was “recovery in synaptophysin protein expression”. Also, the “nitrotyrosine production (immunofluorescence)” value in series [6] (nNOS silencing in the SHANK3 si-RNA group (double knockdown)) is “reduction in nitrotyrosine production”.
